The values below are quoted from earlier work in paper PMC7383075 (Journal of Nuclear Medicine, 2020).

The subject of one data set is insulinomas. To be noted: at the proper dilution; ref [23]. The text has this: A targeted approach, as described in this study, has the benefit of creating signals with higher contrast between the target and surrounding tissue and therefore more precise delineation of the lesion. […] Re ...
The test system of data set [1] is primary breast cancer lesions, as well as peritoneal metastases of colorectal cancer. To be noted: primary breast cancer lesions and peritoneal metastases of colorectal cancer; ref [29],[30]. The source says:
Contributing to the potential for clinical translation of this tracer is the use of the NIR fluorophore IRDye 800CW. This dye is widely used in the development of targeted fluorescence imaging approaches, and several studies already have shown the first successful clinical applications using this fluorophore. […] Also, IRDye 800CW coupled to the monoclonal antibody cetuximab was successfully used fo ...

For the molecule `CN(C)c1ccc2nc3ccc(=[N+](C)C)cc-3sc2c1` [methylene blue], the “uptake in insulinomas versus normal pancreatic tissue” value with insulinomas was “higher uptake in insulinomas than in normal pancreatic tissue”. In the case of “IRDye 800CW coupled to the monoclonal antibody bevacizumab: IRDye 800CW coupled to the monoclonal antibody bevacizumab”, the “detection of cancer lesions” value in data set [1] is listed as “shown to be feasible”.
